Measurements from ChEMBL document CHEMBL1201862, “PubChem BioAssay data set” (2004).
The source made the active and inactive calls.

What was measured:
[1] = A549 cell cytotoxicity, dose response, cytotoxicity control, cherry-picks, 26 µM top dose (AID 1053119); assay type: functional, cell-based
[2] = Shn3 3'UTR reporter inhibitors, dose response, cell-based, Clone20 osteoblasts, firefly luciferase, cherry-picked (AID 624132); assay type: functional;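 further: firefly luciferase luminescence from reporter carrying the Shn3 3'UTR in osteoblasts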
[3] = HepG2 cell cytotoxicity, dose response, cytotoxicity control for Shn3 inhibitor project, CellTiter-Glo, cherry-picked (AID 624134); assay type: functional, cell-based
[4] = control 3'UTR Renilla luciferase suppression, dose response, counter-screen for Shn3 inhibitor project, cell-based, Clone20-Shn3RL, cherry-picked (AID 624133); assay type: functional
[5] = ADAM10 inhibitors, peptide cleavage, dose response, biochemical, QFRET (AID 743254);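 further: ADAM10 enzyme with the DM2 quenched FRET peptide as substrate; EDANS fluorescence gain as the protease cuts the substrate; inhibitor potency against ADAM10 proteolytic activity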
[6] = target: T1, Disintegrin and metalloproteinase domain-containing protein 17 (Homo sapiens, UniProt P78536); test: exosite inhibitors of ADAM17, dose response, biochemical (AID 743260)
T1 sequence (P78536 whole entry, the tested form may be a part): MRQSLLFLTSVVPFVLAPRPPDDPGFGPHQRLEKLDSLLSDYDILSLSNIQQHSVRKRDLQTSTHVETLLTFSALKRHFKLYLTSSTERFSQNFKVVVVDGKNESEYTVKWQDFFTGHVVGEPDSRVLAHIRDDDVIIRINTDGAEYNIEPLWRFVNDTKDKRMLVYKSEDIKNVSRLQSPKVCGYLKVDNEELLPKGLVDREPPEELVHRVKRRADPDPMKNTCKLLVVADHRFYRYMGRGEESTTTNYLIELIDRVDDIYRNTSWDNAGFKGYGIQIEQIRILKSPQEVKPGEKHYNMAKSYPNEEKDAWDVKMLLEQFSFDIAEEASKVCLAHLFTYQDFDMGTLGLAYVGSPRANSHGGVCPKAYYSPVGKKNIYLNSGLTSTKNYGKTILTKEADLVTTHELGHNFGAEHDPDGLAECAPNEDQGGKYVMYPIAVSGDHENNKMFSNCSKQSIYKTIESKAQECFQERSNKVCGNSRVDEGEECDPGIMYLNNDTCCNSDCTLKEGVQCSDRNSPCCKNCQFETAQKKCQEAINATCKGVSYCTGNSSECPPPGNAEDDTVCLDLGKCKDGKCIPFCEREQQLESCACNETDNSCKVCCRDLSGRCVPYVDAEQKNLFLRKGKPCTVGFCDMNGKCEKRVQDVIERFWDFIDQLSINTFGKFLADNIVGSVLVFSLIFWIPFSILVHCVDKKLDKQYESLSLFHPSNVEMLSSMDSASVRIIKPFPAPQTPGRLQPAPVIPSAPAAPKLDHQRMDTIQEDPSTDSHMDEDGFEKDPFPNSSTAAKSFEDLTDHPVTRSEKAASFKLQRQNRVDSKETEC

[7] = ADAM10 protease inhibitors, dose response, selectivity assay for ADAM17 exosite inhibitor project, biochemical, FRET peptide substrate, recombinant human ADAM10 (AID 743259);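 further: ADAM10 enzyme cleaving a FRET peptide substrate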
[8] = target: T1, Disintegrin and metalloproteinase domain-containing protein 17; test: ADAM17 protease inhibitors, dose response, counter-screen for ADAM10 exosite inhibitor project, biochemical, quenched FRET substrate (AID 743253)
[9] = P. falciparum 3D7-ScDHODH growth inhibitors, dose response, SYBR Green, dry powder samples (AID 1159570); assay type: functional, cell-based;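 further: parasite growth measured after 72 hours of compound exposure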
[10] = HepG2 cell cytotoxicity, dose response, cytotoxicity control, plate reader, dry powder samples (AID 1159569); assay type: functional, cell-based;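 further: inhibitor potency with signal falling toward the positive control level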
[11] = P. falciparum Dd2 growth inhibitors, dose response, SYBR Green, cherry-picked samples (AID 1159567); assay type: functional, cell-based
[12] = P. falciparum Dd2 growth inhibitors, dose response, SYBR Green, dry powder samples (AID 1159566); assay type: functional, cell-based;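 further: potency for growth inhibition with lower SYBR green DNA signal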
[13] = P. falciparum ATP4 D1247Y mutant growth inhibitors, dose response, NITD609-resistant line, SYBR Green, dry powder (AID 1159571); assay type: functional, cell-based;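 further: parasites synchronized at ring stage by sorbitol before testing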
Ephrin type-A receptor 4 = Ephrin type-A receptor 4 (Mus musculus, UniProt Q03137); test: inhibitors of EphA4 binding to KYL peptide, primary screen, biochemical, colorimetric, mouse EphA4 (AID 689); assay type: functional
Sequence of Ephrin type-A receptor 4 (Q03137 whole entry): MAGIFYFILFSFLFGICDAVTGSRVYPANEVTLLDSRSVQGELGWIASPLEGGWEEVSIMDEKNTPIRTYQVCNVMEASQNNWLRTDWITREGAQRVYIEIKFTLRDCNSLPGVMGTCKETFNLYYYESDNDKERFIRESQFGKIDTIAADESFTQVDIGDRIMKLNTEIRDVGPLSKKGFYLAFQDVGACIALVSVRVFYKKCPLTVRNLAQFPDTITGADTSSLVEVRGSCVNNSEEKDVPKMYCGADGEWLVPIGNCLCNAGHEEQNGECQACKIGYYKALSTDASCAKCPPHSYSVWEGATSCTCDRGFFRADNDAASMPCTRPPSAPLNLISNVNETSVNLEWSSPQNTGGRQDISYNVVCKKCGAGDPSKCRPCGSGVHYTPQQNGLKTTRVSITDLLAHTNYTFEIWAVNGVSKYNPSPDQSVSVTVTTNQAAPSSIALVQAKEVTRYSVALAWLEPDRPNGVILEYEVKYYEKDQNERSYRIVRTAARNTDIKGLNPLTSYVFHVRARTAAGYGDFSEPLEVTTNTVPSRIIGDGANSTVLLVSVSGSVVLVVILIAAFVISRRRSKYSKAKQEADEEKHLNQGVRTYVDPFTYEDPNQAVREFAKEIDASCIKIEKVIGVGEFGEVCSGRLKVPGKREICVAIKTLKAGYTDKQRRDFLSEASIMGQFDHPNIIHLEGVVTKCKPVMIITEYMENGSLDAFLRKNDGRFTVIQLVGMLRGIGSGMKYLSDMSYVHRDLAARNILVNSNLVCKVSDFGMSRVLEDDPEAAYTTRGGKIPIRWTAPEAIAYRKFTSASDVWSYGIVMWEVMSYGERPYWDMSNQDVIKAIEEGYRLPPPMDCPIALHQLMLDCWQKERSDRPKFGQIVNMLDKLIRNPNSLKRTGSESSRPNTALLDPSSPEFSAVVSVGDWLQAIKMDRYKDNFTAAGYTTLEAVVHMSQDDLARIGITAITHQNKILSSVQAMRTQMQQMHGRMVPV

[14] = HepG2 cell cytotoxicity, dose response, cytotoxicity control, cherry-picked samples (AID 1159577); assay type: functional, cell-based
[15] = target: E3 ubiquitin-protein ligase Mdm2 (Homo sapiens, UniProt Q00987); test: enhancers of MDM2-luciferase reporter signal, concentration-effect titration, project on inhibitors of MDM2 ubiquitin ligase, cellular assay, luminescent readout, 384-well plate format (AID 1394); assay type: functional;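 further: MDM2 E3 inhibitors raise luminescence so EC50 is for signal enhancement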
Sequence of E3 ubiquitin-protein ligase Mdm2 (Q00987 whole entry): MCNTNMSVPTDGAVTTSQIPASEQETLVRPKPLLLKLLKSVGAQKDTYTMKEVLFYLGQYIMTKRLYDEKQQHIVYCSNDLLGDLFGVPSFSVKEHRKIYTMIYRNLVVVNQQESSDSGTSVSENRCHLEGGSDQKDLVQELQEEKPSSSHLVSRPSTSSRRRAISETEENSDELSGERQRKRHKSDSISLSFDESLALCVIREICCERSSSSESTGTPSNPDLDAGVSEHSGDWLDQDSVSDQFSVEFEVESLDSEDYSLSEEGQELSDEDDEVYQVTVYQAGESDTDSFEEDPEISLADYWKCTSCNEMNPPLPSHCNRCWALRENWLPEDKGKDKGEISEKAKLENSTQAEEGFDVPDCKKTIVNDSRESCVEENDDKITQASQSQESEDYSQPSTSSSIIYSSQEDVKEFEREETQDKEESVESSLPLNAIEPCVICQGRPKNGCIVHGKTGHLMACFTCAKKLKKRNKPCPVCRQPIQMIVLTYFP

[16] = M. tuberculosis H37Rv growth inhibitors, H37Rv strain (AID 1626); assay type: functional
[17] = inhibitors of intracellular T. cruzi replication, confirmation, NIH3T3 host cells, beta-gal luminescence (AID 2044); assay type: functional, cell-based;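 further: intracellular parasites grown in NIH/3T3 mouse fibroblasts as host cells; luminescent beta-galactosidase reporter signal from transgenic T. cruzi replicating inside host cells; inhibitors lower the luminescence signal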
[18] = cytotoxicity toward NIH3T3 fibroblasts, dose response, counter-screen, cell-based, ATP luminescence, mouse fibroblasts (AID 2010); assay type: functional;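 further: cells exposed to compound for about 90 hours before reading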
[19] = target: T2, Oxysterols receptor LXR-beta (Homo sapiens, UniProt P55055); test: LXR agonists, Gal4 luciferase reporter, dose response, counter-screen for ssDAF-12 agonist project, cell-based, luminescence, HEK293, S. stercoralis campaign (AID 720737); assay type: functional; conditions: read-out: IC50 (the source's name)
T2 sequence (P55055 whole entry): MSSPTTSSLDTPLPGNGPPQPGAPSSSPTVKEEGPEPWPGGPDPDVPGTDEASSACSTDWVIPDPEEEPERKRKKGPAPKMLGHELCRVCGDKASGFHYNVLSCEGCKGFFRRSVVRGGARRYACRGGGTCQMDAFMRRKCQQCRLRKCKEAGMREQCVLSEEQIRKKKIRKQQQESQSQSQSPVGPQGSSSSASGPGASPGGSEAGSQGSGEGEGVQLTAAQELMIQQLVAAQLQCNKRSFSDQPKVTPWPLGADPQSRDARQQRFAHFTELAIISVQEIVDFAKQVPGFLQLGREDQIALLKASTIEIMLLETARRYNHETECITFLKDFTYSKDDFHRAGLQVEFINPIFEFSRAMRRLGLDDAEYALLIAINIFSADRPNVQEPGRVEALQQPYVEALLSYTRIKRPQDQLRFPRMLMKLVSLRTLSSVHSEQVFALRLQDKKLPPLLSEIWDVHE

[20] = target: T2, Oxysterols receptor LXR-beta; assay type: functional, cell-based
Vero = test: host cell cytotoxicity of antiviral hits, dose response, cytotoxicity control for West Nile virus antiviral project, secondary assay (AID 1650); assay type: functional; conditions: Chlorocebus sabaeus
INS1 = test: beta cell apoptosis inhibitors, cytokine rescue, dose response, luminescence, retest (AID 449756); assay type: functional, cell-based; conditions: Rattus norvegicus;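 further: cell death triggered by IL-1 beta plus TNF-alpha plus IFN-gamma mixture; protective hits raise ATP signal compared with cytokine alone wells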
Prothrombin = Prothrombin (Homo sapiens, UniProt P00734); test: Thrombin 1536 HTS Dose Response Confirmation. [Related pubchem assays: 1046 (Thrombin 1536 HTS; hits were confirmed in this assay)]; assay type: functional
[21] = target: Protein-tyrosine kinase 2-beta (Homo sapiens, UniProt Q14289);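 further: potency of inhibitors of PYK2 kinase phosphorylation of poly-GT substrate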
Sequence of Protein-tyrosine kinase 2-beta (Q14289 whole entry): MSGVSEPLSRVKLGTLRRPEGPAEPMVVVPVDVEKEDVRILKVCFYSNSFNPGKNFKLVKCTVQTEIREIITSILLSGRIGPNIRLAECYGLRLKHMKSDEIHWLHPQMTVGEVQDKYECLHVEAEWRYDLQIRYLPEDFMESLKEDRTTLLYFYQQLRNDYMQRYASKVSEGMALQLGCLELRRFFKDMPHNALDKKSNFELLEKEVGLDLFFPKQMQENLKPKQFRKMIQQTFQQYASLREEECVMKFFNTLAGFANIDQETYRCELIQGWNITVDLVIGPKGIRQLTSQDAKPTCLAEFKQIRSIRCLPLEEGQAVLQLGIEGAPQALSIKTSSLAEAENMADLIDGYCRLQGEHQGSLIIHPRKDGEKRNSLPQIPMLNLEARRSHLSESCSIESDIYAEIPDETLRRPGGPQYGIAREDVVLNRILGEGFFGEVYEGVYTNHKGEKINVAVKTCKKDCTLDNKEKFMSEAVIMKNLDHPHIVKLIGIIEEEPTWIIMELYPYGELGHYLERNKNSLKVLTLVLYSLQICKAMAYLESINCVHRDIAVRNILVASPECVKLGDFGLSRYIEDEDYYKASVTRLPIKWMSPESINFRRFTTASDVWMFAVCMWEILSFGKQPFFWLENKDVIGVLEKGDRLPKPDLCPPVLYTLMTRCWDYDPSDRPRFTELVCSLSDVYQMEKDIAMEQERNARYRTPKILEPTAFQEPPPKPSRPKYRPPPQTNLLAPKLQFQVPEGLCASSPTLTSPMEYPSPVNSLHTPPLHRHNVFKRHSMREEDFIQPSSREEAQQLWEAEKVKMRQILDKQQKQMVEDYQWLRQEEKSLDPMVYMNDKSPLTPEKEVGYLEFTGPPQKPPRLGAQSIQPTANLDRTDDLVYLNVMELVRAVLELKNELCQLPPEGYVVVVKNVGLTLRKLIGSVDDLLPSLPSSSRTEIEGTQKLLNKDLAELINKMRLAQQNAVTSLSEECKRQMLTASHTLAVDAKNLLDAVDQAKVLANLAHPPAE

Cc1ccn2cc(-c3ccc(NC(=O)c4ccco4)cc3)nc2c1
AC50 [1]: > 52 µM (inactive)

C=CCC[C@H](Cc1ccc(F)cc1)C(=O)OC[C@H](Cc1c[nH]c2ccccc12)NC(=O)[C@@H](CC=C)CC(=O)N[C@H](CO)Cc1ccccc1
AC50 [2]: 4.44 µM (active) | AC50 [3]: 17 µM (active) | AC50 [4]: 15.8 µM (active) | IC50 [5]: > 69.5 µM (inactive) | IC50 [6]: > 69.5 µM (inactive) | IC50 [7]: 58.9 µM (inactive) | IC50 [8]: > 69.5 µM (inactive)

C[C@H](CO)N1C[C@H](C)[C@@H](CN(C)C(=O)c2ccc(F)cc2)Oc2ncc(/C=C/c3ccccc3)cc2C1=O
AC50 [9]: 2.68 µM (active) | AC50 [10]: 85.2 µM (active) | AC50 [11]: 1.63 µM (active) | AC50 [12]: 1.58 µM (active) | AC50 [13]: 1.65 µM (active)

COCc1cn([C@@H]2C[C@@H]3O[C@@H](CO)CC[C@@H]3O[C@@H]2CCc2ccc(-c3ccc(OC)cc3)cc2)nn1
AC50 [9]: 0.231 µM (active) | AC50 [10]: 43 µM (active) | AC50 [11]: 1.12 µM (active) | AC50 [12]: 0.362 µM (active) | AC50 [13]: 0.451 µM (active)

COc1cccc(C2(CSc3nnc(-c4cc(OC)c(OC)c(OC)c4)o3)OCCO2)c1
IC50 (Ephrin type-A receptor 4): > 100 µM (not active)

O=S(=O)(c1ccc(-c2ccccc2)cc1)N1C[C@@H]2N[C@H](C1)[C@@H]2c1ccc(-c2ccccc2)cc1
AC50 [11]: 2.86 µM (active) | AC50 [14]: 16 µM (active)

O=C1NC(=O)c2cc(NC(=O)C3COc4ccccc4O3)ccc21 (stereo not drawn)
EC50 [15]: 6.75 µM (not active)

CC(=O)Nc1ccc(Nc2cc(C)nc3c(-c4ccccc4)c(C)nn23)cc1
IC50 [16]: > 100 µM (active)

CCCn1c(SCC(=O)N2c3ccccc3Sc3ccccc32)nc2ccccc21
EC50 [17]: 2.9 µM (active) | EC50 [18]: > 60 µM (not active) | IC50 [6]: > 69.5 µM (inactive) | IC50 [7]: 19.7 µM (inactive)

NC(=NOC(=O)c1ccccc1Cl)c1ccccc1
EC50 [19]: > 67.6 µM (inactive) | EC50 [20]: > 67.6 µM (inactive)

Cn1c(=O)[nH]c(=O)c2c1nc(N1CCN(C(c3ccccc3)c3ccccc3)CC1)n2CCO
CC50 (Vero): 14.5 µM (active) | AC50 (INS1): 6.24 µM (active)

CSc1nc(-c2ccccc2)nn1C(=O)c1ccco1
IC50 (Prothrombin): 300 nM (active)

COCCN(Cc1ccccc1)P(=O)(O)c1ccccc1OCC(=O)O
IC50 [21]: 7.64 µM (active)
